Converted amounts (≈) assume the structure as drawn. Where two headings read alike, the source gives them in different places.
Columns and labels:
[1] = RP-UHPLC lipophilicity parameter log k’w; type: physicochemical; details: for log k’w: RP-UHPLC, acetonitrile/water, log k extrapolated to 0% acetonitrile; for logkw: experimental lipophilicity parameter
Summary of the method: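 log k’w from isocratic RP-UHPLC with an acetonitrile/water mobile phase, using 40, 45 and 50% acetonitrile for subtype I and 20, 30 and 40% for subtype II. A single run was made at each mobile-phase composition.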

[2] = tested on: HepG2 cells; experiment: HepG2 cytotoxicity screening (CellTiter 96); type: cell-based, human; details: for IC50: Homo sapiens, HepG2, 24 h, 24 h incubation, CellTiter 96, * above highest tested concentration, ** limited by insolubility in medium
[3] = tested on: Mycobacterium tuberculosis H37Ra ITM-M006710 (ATCC 9431); experiment: Antimycobacterial MIC, microdilution broth / Alamar Blue (resazurin); type: cell-based; details: Mycobacterium tuberculosis
[4] = tested on: M. smegmatis DSM 43465 (ATCC 607); experiment: Antimycobacterial MIC, microdilution broth / resazurin; type: cell-based; details: Mycolicibacterium smegmatis; resazurin after 48 h; read-out: MIC M. smegmatis
[5] = tested on: M. aurum DSM 43999 (ATCC 23366); experiment: as above; type: cell-based; details: Mycolicibacterium aurum, read-out: MIC M. aurum
[6] = Kinetic water solubility (water-induced precipitation of DMSO stock, UHPLC); type: physicochemical; details: for solubility: water (DMSO stock diluted with water), 18 °C, kinetic from dmso stock
Excerpt: A low value of log P is often presumed to be related to increased water solubility, although this might not always be the case since log P is a measure of relative solubility of the compound in the lipophilic and hydrophilic solvents (at equilibrium). Therefore, to be sure, we tested whether the lowered log k’w (related to log P) of the oxazole derivatives would also translate to increased solubility in water in a few representative derivatives. The water solubility of selected compounds was assessed by the kinetic method based on water-induced precipitation of DMSO stock solutions of tested compounds due to reasons described by Azzali and colleagues.
Water solubility was investigated using the kinetic solubility method. The sample (1 mg) was dissolved in the smallest amount of DMSO needed, 25 or 50 μL for subtype I and subtype II compounds, respectively. The samples were mixed at 18 °C in a thermomixer (Thermomixer comfort, Eppendorf, Hamburg, Germany) for 1 h. After mixing, the samples were diluted with water to a concentration of 500 μM, and the precipitate was observed. The sample was filtered through a 0.22 μm filter and diluted to be evaluated by UHPLC. The log S parameter was calculated from the experimental solubility in molar concentration. The samples were measured using the same instrument, software, and column as used in the purity evaluation.

[7] = tested on: Staphylococcus aureus subsp. aureus CCM 4223 (ATCC 29213); experiment: Antibacterial microdilution broth (EUCAST); type: cell-based; details: Staphylococcus aureus; 24h incubation; read-out: MIC SA
[8] = tested on: Staphylococcus aureus subsp. aureus (MRSA) CCM 4750 (ATCC 43300); experiment: Antibacterial microdilution broth (EUCAST); type: cell-based; details: Staphylococcus aureus; 24h incubation; read-out: MIC MRSA
[9] = tested on: Staphylococcus epidermidis CCM 4418 (ATCC 12228); experiment: Antibacterial microdilution broth (EUCAST); type: cell-based; details: Staphylococcus epidermidis; 24h incubation; read-out: MIC SE
[10] = tested on: Enterococcus faecalis CCM 4224 (ATCC 29212); experiment: Antibacterial microdilution broth (EUCAST); type: cell-based; details: Enterococcus faecalis; 24h incubation; read-out: MIC EF
[11] = tested on: Escherichia coli CCM 3954 (ATCC 25922); experiment: Antibacterial microdilution broth (EUCAST); type: cell-based; details: Escherichia coli; 24h incubation; read-out: MIC EC
[12] = tested on: Acinetobacter baumannii DSM 30007 (ATCC 19606); experiment: Antibacterial microdilution broth (EUCAST); type: cell-based; details: Acinetobacter baumannii; 24h incubation; read-out: MIC AB
[13] = tested on: Pseudomonas aeruginosa CCM 3955 (ATCC 27853); experiment: Antibacterial microdilution broth (EUCAST); type: cell-based; details: Pseudomonas aeruginosa; 72h incubation; read-out: MIC PA
[14] = tested on: Candida albicans CCM 8320 (ATCC 24433); experiment: Antifungal microdilution broth (EUCAST); details: Candida albicans, 24 h, read-out: MIC CA
[15] = tested on: Candida krusei CCM 8271 (ATCC 6258); experiment: Antifungal microdilution broth (EUCAST); details: Pichia kudriavzevii, 24 h, read-out: MIC CK
[16] = tested on: Candida parapsilosis CCM 8260 (ATCC 22019); experiment: Antifungal microdilution broth (EUCAST); details: Lodderomyces parapsilosis, 24 h, read-out: MIC CP
[17] = tested on: Candida tropicalis CCM 8264 (ATCC 750); experiment: Antifungal microdilution broth (EUCAST); details: Candida tropicalis, 24 h, read-out: MIC CT
[18] = tested on: Aspergillus fumigatus ATCC 204305; experiment: Antifungal microdilution broth (EUCAST); details: Aspergillus fumigatus, ATCC204305, 24 h, read-out: MIC AF
[19] = tested on: Aspergillus flavus CCM 8363; experiment: Antifungal microdilution broth (EUCAST); details: Aspergillus flavus, CCM8363, 24 h, read-out: MIC AFla
[20] = tested on: Lichtheimia corymbifera CCM 8077; experiment: Antifungal microdilution broth (EUCAST); details: Lichtheimia corymbifera, CCM8077, 24 h, read-out: MIC LC
[21] = tested on: Trichophyton interdigitale CCM 8377 (ATCC 9533); experiment: Antifungal microdilution broth (EUCAST); details: Trichophyton interdigitale, 72 h, read-out: MIC TI
[22] = tested on: M. avium DSM 44156 (ATCC 25291); experiment: Antimycobacterial MIC, microdilution broth / resazurin; type: cell-based, Mycobacterium avium; details: Mycobacterium avium; resazurin after 96 h; read-out: MIC M. avium
[23] = tested on: M. kansasii DSM 44162 (ATCC 12478); experiment: as above; type: cell-based; details: Mycobacterium kansasii; resazurin after 96 h; read-out: MIC M. kansasii
[24] = 120 h, Middlebrook 7H9, resazurin after 120 h, read-out: Mtb H37Ra MIC
[25] = calculated from experimentally measured water solubility in molar concentration, read-out: Exp. log S (converted)
[26] = water, kinetic method, DMSO stock diluted to 500 μM, read-out: Solubility

Structure (SMILES)	log k’w [1]	logkw [1]	IC50 [2] [µM]	MIC [3, 24] [µg/mL]	MIC [4] [µg/mL]	MIC [7] [µM]	MIC [8] [µM]	MIC [9] [µM]	MIC [10] [µM]	MIC [11] [µM]	MIC [12] [µM]	MIC [13] [µM]	MIC [14] [µM]	MIC [15] [µM]	MIC [16] [µM]	MIC [17] [µM]	MIC [18] [µM]	MIC [19] [µM]	MIC [20] [µM]	MIC [21] [µM]	also measured
O=C(Nc1ncco1)c1cccnc1 [Compound 2b]	0.436	0.4358	> 1000	31.2	62.5 (≈ 330 µM)	250 (≈ 47.3 µg/mL)	500 (≈ 94.6 µg/mL)	500 (≈ 94.6 µg/mL)	> 500	> 500	> 500	> 500	500 (≈ 94.6 µg/mL)	500 (≈ 94.6 µg/mL)	250 (≈ 47.3 µg/mL)	> 500	> 500	> 500	> 500	125 (≈ 23.6 µg/mL)	MIC ([5]; resazurin after 72 h): 15.6 µg/mL (≈ 82.6 µM); logS_exp ([6]; experimental log S): -0.9171; melting point: 155 to 160 °C
O=C(Nc1nccs1)c1ccnc(Cl)c1 [Compound 6a]	2.013	2.013	> 250	≥ 500	≥ 500	> 500	> 500	> 500	> 500	> 500	> 500	> 500	> 500	> 500	> 500	> 500	> 500	> 500	> 500	> 500	MIC ([5]; resazurin after 72 h): ≥ 500 µg/mL; MIC [22]: ≥ 500 µg/mL; MIC [23]: ≥ 500 µg/mL; solubility [6, 25]: 126 µM; solubility [6, 26]: 29.9 µg/mL; melting point: 152 to 154 °C
O=C(Nc1nc(-c2ccccc2)co1)c1ccnc(Cl)c1 [Compound 15b]	1.992	1.992	136	7.81	31.2 (≈ 104 µM)	62.5 (≈ 18.7 µg/mL)	62.5 (≈ 18.7 µg/mL)	250 (≈ 74.9 µg/mL)	250 (≈ 74.9 µg/mL)	> 500	500 (≈ 150 µg/mL)	> 500	500 (≈ 150 µg/mL)	500 (≈ 150 µg/mL)	500 (≈ 150 µg/mL)	500 (≈ 150 µg/mL)	> 500	> 500	> 500	500 (≈ 150 µg/mL)	SI ([2]; SI = IC50 (µM) HepG2 / MICH37Ra (µM)): 5.2; MIC ([3]; recalculated from µg/mL, read-out: MICH37Ra): 26.1 µM; MIC ([5]; 72 h): 7.81 µg/mL (≈ 26.1 µM); MIC [22]: 15.6 µg/mL (≈ 52.1 µM); MIC [23]: 15.6 µg/mL (≈ 52.1 µM); solubility [6, 25]: 417 µM; solubility [6, 26]: 124 µg/mL
